Reference: US20020115728A1, “Compositions and methods for treating cardiovascular disorders” (priority 2000, published 2002)
Read-outs that look alike come from different tables or passages of the source. Blank lines part the entries; values can stand above or below the compound they belong to.

What was measured:
[1] = Plasma drug level of bisphenol; assay type: in vivo, mice; settings: for concentration at 14 weeks: male, apoE−/−;LDLr−/−, mouse, plasma, oral, 0.03 % (w/w) in chow, mice ranked by plasma drug level
Experimental: Male apoE−/−;LDLr−/− mice (59 total), were maintained on standard R3 chow from weaning to 8 weeks of age (young controls, n=9). Thereafter mice received R3 chow with (n=25) or without supplemented bisphenol (n=25) for an additional 14 weeks. Standard R3-mouse chow was fortified with bisphenol at 0.03% (w/w), a level of supplementation shown in pilot experiments to afford circulating concentrations of the drug of ˜200 μM, considered suitable to test the effect of the co-antioxidant on atherogenesis in this animal model. At 22 weeks of age 10 and 15 mice of each group were used for biochemical and histological analyses, respectively. Due to the small size, it was necessary to pool aortas to yield sufficient material for biochemical analyses.
Analyses of oxidised and non-oxidised lipids were carried out by RP-HPLC as described in Example 1 except that in some instances UV234 nm rather than post-column chemiluminescence detection was used to measure C18:2-OOH and the corresponding hydroxides (together referred to as CE-O(O)H) which show similar retention times under these chromatographic conditions. α-TQ, α-TOH, α-tocotrienol, D-isosascorbate and ascorbate were determined by HPLC with electrochemical detection. For oxidation of plasma, unesterified cholesterol (which remained non-oxidised in these experiments) was employed as internal standard for all polyunsaturated, lipid-soluble components analysed. Bisphenol and diphenoquinone were analysed by RP-HPLC: flow 1.5 mL/min, 100% solvent A (MeCN/MeOH/H20 10:10:3, v/v/v) for 0-15 min monitored at 270 nm, followed by 50% solvent A and B (MeCN/MeOH 1:1, v/v) for 15-22 min at 242 nm and then 100% B for 22-28 min at 420 nm. Bisphenol and diphenoquinone eluted at 9 and 27 min, respectively. All compounds were quantified by peak area comparison with authentic standards. […]
Unless otherwise stated lipid and antioxidant levels are expressed as pmol/mg protein. LH, lipid containing bisallylic hydrogens. §Values are expressed as nmol/mg protein. […]

[2] = tested on: plasma lipids obtained from apoE−/− mice; assay: Ex vivo oxidizability of plasma lipids (aqueous peroxyl radical generator); assay type: in vivo; settings: pooled plasma of probucol-treated apoE−/− mice, 5 mM MPH, 37° C.
Experimental: Pooled plasma obtained from control (open symbols) or probucol-treated (closed symbols) mice was exposed to 5 mM of the aqueous peroxyl radical generator MPH and incubated under air at 37° C. […] Data shown are mean±SD of a single oxidation experiment performed in triplicate using pooled plasma. Where error bars are not shown, error is smaller than the symbol.
(§1) Plasma was obtained from control and probucol mice and aliquots frozen for subsequent determination of lipids. Separate aliquots were acidified with metaphosphoric acid (5%) to stabilize vitamin C prior to freezing and storage at −80° C. The remainder was pooled appropriately and used for ex vivo oxidation initiated by the peroxyl radical generator AAPH and lipoprotein separation by FPLC with UV280nm detection, as described in J Lipid Res. 1999;40:1104-1112.
Enhanced resistance of plasma lipoproteins to oxidation is often used as a measure of antioxidant efficacy. Therefore, we examined MPH-induced oxidation of pooled plasma from control and treated animals. […] These observations can be explained readily on the basis of tocopherol-mediated peroxidation.

[3] = tested on: cholesterol-fed, ballooned New Zealand White rabbits; assay: Atherosclerosis/restenosis and lipid oxidation in cholesterol-fed, ballooned rabbits; assay type: in vivo; settings: 2% cholesterol diet with 1% probucol, 6 weeks
Experimental: Aortic endothelial denudation was performed at week 3 by withdrawing an inflated 3F Fogarty balloon embolectomy catheter three times down the length of the aorta. Plasma was obtained from animals as described in Example 1 at the start and end of the study. At the end of the study period, individual aortas were removed and prepared for HPLC analysis as in Example 1. Lipids and antioxidants including probucol and its metabolites, bisphenol and diphenoquinone, were analyzed by RP-HPLC as described previously. Aortas designated for histology were perfusion-fixed with 4% (v/v) formaldehyde and transferred into formalin. Cross-sections (2-3 μm thick) were prepared and stained with Weigert's hematoxylin-van Gieson, and the intima to media ratio determined for three sections.

[4] = Probucol and metabolite levels in aorta and plasma; assay type: in vivo; settings: apoE−/− mice, 1% probucol, 24 weeks
Experimental: Male C57BL/6J mice, homozygous for the disrupted apoE gene (apoE−/−) were fed standard chow (Lab-Feed, Sydney, Australia) until aged 10 weeks.
Lipid-soluble antioxidants and lipids were quantified by HPLC as described in FASEB J. 1999;13:667-675. For ascorbate analysis, frozen acidified samples were thawed, diluted with DPBS to adjust the pH to 7.4 and then immediately subjected to HPLC. Plasma triglycerides were determined enzymatically (Boehringer, Mannheim, Germany).
Pooled aortas were snap frozen in liquid nitrogen, pulverised, resuspended in Buffer A, homogenised and then either treated with metaphosphoric acid (for ascorbate) or extracted and the hexane fraction analysed for lipid-soluble antioxidants, cholesterol (C), choleseteryl esters (CE), lipid hydroperoxides (LOOH) and cholesteryl ester hydroxides (CE-OH) by HPLC as described in Methods Enzymol. 1994;233:469-489. LOOH and CE-OH were measured as markers of lipoprotein lipid oxidation, as they are the primary and major oxidation products formed when lipoproteins from apoE−/− mice undergo oxidation. […] All compounds were quantified by peak area comparison with authentic standards, and protein determined.

[5] = tested on: plasma lipoproteins of apoE−/− mice; assay: Lipids and antioxidants in lipoprotein fractions (size exclusion FPLC of pooled plasma); assay type: in vivo; design: VLDL C / VLDL C18:2 / VLDL -TOH / VLDL Total CoQ / LDL C / LDL C18:2 / LDL -TOH / LDL Total CoQ / HDL C / HDL C18:2 / HDL -TOH / HDL Total CoQ: unit not given here; settings: 24 weeks
Experimental: as §1
Two consecutive separations each employing 300 μL undiluted plasma were carried out. The corresponding eluents from both injections were collected, pooled according to fractions corresponding to very low-density lipoprotein (VLDL), LDL, and HDL plus mouse serum albumin (see FIG. 3) and then extracted and analysed for lipids and antioxidants.

circulating concentrations of the drug, pilot experiments ([1]; chow fortified with bisphenol at 0.03% (w/w)): ~200 µM | concentration at 14 weeks ([1]; Bisphenol [high] aorta pool, read-out: plasma concentration of bisphenol, high group): 212 ± 50 µM | concentration at 14 weeks ([1]; Bisphenol [low] aorta pool, read-out: plasma concentration of bisphenol, low group): 106 ± 40 µM
Compound: CC(C)(C)c1cc(-c2cc(C(C)(C)C)c(O)c(C(C)(C)C)c2)cc(C(C)(C)C)c1O [Bisphenol, bisphenol]
fate of the compound present in plasma during the oxidation period [2]: oxidised into diphenoquinone

drug metabolised to bisphenol or diphenoquinone, aorta ([4]; aorta): ~11% | drug converted into bisphenol or diphenoquinone, plasma ([4]; plasma): ~8%
Compound: CC(C)(Sc1cc(C(C)(C)C)c(O)c(C(C)(C)C)c1)Sc1cc(C(C)(C)C)c(O)c(C(C)(C)C)c1 [Probucol, probucol]
content of plasma and aortic lipids and absolute amounts of oxidized lipids [3]: significantly decreased | proportion of aortic lipids that was oxidized [3]: not affected | effect on atherosclerosis ([3]; aortic denudation at week 3): significantly decreased | fate of the compound present in plasma during the oxidation period [2]: remained unchanged | onset and initial rate of CE-O(O)H accumulation vs control plasma ([2]; air): delayed and decreased | HDL -TOH ([5]; HDL fraction, 1% probucol): 1.4 | HDL C ([5]; HDL fraction, 1% probucol): 0.12 | HDL C18:2 ([5]; HDL fraction, 1% probucol): 531 | HDL C20:4 ([5]; HDL fraction, 1% probucol): 24.0 | HDL Total CoQ ([5]; HDL fraction, 1% probucol): 0.1 | LDL -TOH ([5]; LDL fraction, 1% probucol): 7.8 | LDL C ([5]; LDL fraction, 1% probucol): 0.96 | LDL C18:2 ([5]; LDL fraction, 1% probucol): 388 | LDL C20:4 ([5]; LDL fraction, 1% probucol): 50.4 | LDL Total CoQ ([5]; LDL fraction, 1% probucol): 0.4 | VLDL -TOH ([5]; VLDL fraction, 1% probucol): 0.56 | VLDL C18:2 ([5]; VLDL fraction, 1% probucol): 340 | VLDL C20:4 ([5]; VLDL fraction, 1% probucol): 17.5 | VLDL Total CoQ ([5]; VLDL fraction, 1% probucol): 0.1 | VLDL C ([5]; VLDL fraction, pooled plasma, 1% w/w probucol): 0.65 | content of C in VLDL, % of the control value ([5]; VLDL of pooled plasma, 1% probucol): 25%
